# Source: patent publication US9018411B2, “Bis-acylated hydroxylamine derivatives” (Cardioxyl Pharmaceuticals, Inc., priority 2009, dated 2015)
# How the values were obtained:
# [1] = HNO production via N2O quantification (GC headspace analysis); assay type: physicochemical; conditions: 37° C. under argon, N2O relative to Angeli's salt; for % N2O DI: compound incubated in DI water; for % N2O pH 7.4: compound incubated in PBS buffer; for % N2O pH 10.3: compound incubated in pH 10.3 carbonate buffer
# Procedure: (§1) Nitrous oxide is produced via the dimerization and dehydration of HNO, and is the most common marker for HNO production (Fukuto, J. M. et al., Chem. Res. Toxicol. 2005, 18, 790-801).
# (§2) The ability of compounds to donate HNO is assessed. N2O results are reported relative to Angeli's salt. All decompositions are carried out at 37° C. under argon.
# [2] = Decomposition of compound in PBS buffer, pH 7.4 determined by HPLC; assay type: physicochemical; conditions: 37° C. under argon; for half-life: read-out: approximate half-life (in parentheses in Decomp. Time column)
# Procedure: as §2
# esterase = assay: HNO production via N2O quantification in PBS buffer, pH 7.4 with added esterase; assay type: in vitro ADME; conditions: pH 7.4 with 2-4 mg added esterase, 37° C. under argon, N2O relative to Angeli's salt
# Procedure: as §1, §2
Decomp. Time (time required for complete decomposition) [2],% N2O esterase (esterase),half-life [2],SMILES,% N2O DI [1],% N2O pH 7.4 [1],% N2O pH 10.3 [1]
<3 h,–,–,"CC(=O)ON(C(C)=O)S(=O)(=O)CCl [Compound 26, N-(chloromethylsulfonyl)-N- acetyloxy-acetamide]",–,13%,–
<3 h,–,–,CC(C)(C)OC(=O)N(OC(=O)c1ccc([N+](=O)[O-])cc1)S(=O)(=O)c1c(Cl)cccc1Cl [Compound 40],–,0%,–
<3 h,73%,–,"CC(=O)ON(C(=O)OC(C)(C)C)S(=O)(=O)c1c(Br)cccc1Br [Compound 38, N-(2,6-dibromobenzenesulfonyl)-N-acetyloxy-tert-butyl-carbamate]",–,3%,37%
< 3 h,–,~30 min,"CC(=O)ON(C(C)=O)S(=O)(=O)c1c(F)cccc1F [Compound 24, N-(2,6-difluorobenzenesulfonyl)-N-acetyloxy-acetamide]",–,23%,–
<3 h,85%,–,"CC(=O)ON(C(=O)OC(C)(C)C)S(=O)(=O)c1c(Cl)cccc1Cl [Compound 37, N-(2,6-dichlorobenzenesulfonyl)-N-acetyloxy-tert-butyl-carbamate]",–,4%,–
<3 h,–,–,"CC(=O)ON(C(=O)c1ccccc1)S(=O)(=O)c1c(Cl)cccc1Cl [Compound 28, N-(2,6-dichlorobenzenesulfonyl)-N-acetyloxy-benzamide]",–,17%,44%
>20 h,–,–,"CC(=O)ON(C(=O)C(C)(C)C)S(=O)(=O)c1ccccc1[N+](=O)[O-] [Compound 32, N-(2-nitrobenzenesulfonyl)-N-acetyloxy-trimethylacetamide]",–,0%,–
< 3 h,57%,~40 min,"CC(=O)ON(C(C)=O)S(=O)(=O)c1c(Cl)cccc1Cl [Compound 23, N-(2,6-dichlorobenzenesulfonyl)-N-acetyloxy-acetamide]",–,56%,56%
<3 h,–,–,"CC(=O)ON(C(C)=O)S(=O)(=O)c1c(F)cc(F)cc1Br [Compound 21, N-(2-bromo-4,6-difluoro-benzenesulfonyl)-N-acetyloxy-acetamide]",–,39%,–
<3 h,83%,–,"CC(=O)ON(C(=O)OCc1ccccc1)S(=O)(=O)c1c(Cl)cccc1Cl [Compound 29, N-(2,6-dichlorobenzenesulfonyl)-N-acetyloxy-benzyl-carbamate]",–,21%,52%
< 2 h,–,~20 min,"CC(=O)ON(C(C)=O)S(=O)(=O)c1c(Br)cccc1Br [Compound 22, N-(2,6-dibromobenzenesulfonyl)-N-acetyloxy-acetamide]",–,71%,–
<2 h,67%,–,"CC(=O)ON(C(=O)OC(C)(C)C)S(=O)(=O)c1ccccc1Br [Compound 36, N-(2-bromobenzenesulfonyl)-N-acetyloxy-tert-butyl-carbamate]",–,7%,–
<3 h,–,–,CCOC(=O)N(OC(C)=O)S(=O)(=O)c1c(Cl)cccc1Cl [Compound 27],–,57%,–
<20 h,–,–,"CC(=O)ON(C(=O)C(C)(C)C)S(=O)(=O)c1cc(Cl)ccc1Cl [Compound 31, N-(2,5-dichlorobenzenesulfonyl)-N-acetyloxy-trimethylacetamide]",–,5%,–
<3 h,–,–,"CC(=O)ON(C(=O)C(Cl)Cl)S(=O)(=O)c1c(Cl)cccc1Cl [Compound 30, N-(2,6-dichlorobenzenesulfonyl)-N-acetyloxy-dichloroacetamide]",–,3%,8%
<20 h,–,–,"CC(=O)ON(C(=O)C(C)(C)C)S(=O)(=O)c1c(Cl)cccc1Cl [Compound 33, N-(2,6-dichlorobenzenesulfonyl)-N-acetyloxy-trimethylacetamide]",–,1%,33%
<3 h,–,–,"CC(=O)ON(C(C)=O)S(=O)(=O)c1ccccc1[N+](=O)[O-] [Compound 25, N-(2-nitrobenzenesulfonyl)-N-acetyloxy-acetamide]",–,13%,–

# The next lines start with the compound.
SMILES,Decomp. Time (time required for complete decomposition) [2],% N2O esterase (esterase),half-life [2],% N2O DI [1],% N2O pH 7.4 [1],% N2O pH 10.3 [1]
"CC(=O)ON(Cl)C(C)=O [Compound 9, N-chloro-N-acetyloxy-acetamide]",<3 h,–,–,80%,15%,–
"O=C(ON(Cl)C(=O)c1ccccc1)c1ccccc1 [Compound 1, N-chloro-N-benzoyloxy-benzamide]",<3 h,–,–,29%,1%,–
"CC(C)(C)C(=O)ON(Cl)C(=O)C(C)(C)C [Compound 12, N-chloro-N-(trimethylacetyloxy)- trimethylacetamide]",<3 h,–,–,37%,1%,–
"CC(=O)ON(Cl)C(=O)OC(C)(C)C [Compound 10, N-chloro-N-acetyloxy-tert-butyl- carbamate]",<3 h,–,–,98%,39%,–
"CC(=O)ON(Br)C(C)=O [Compound 15, N-bromo-N-acetyloxy-acetamide]",<3 h,–,–,–,7%,–
"CCOC(=O)ON(Cl)C(=O)OCC [Compound 11, N-chloro-ethyl-carbonoxy-ethyl- carbamate]",<3 h,–,–,31%,12%,–
"CC(=O)ON(C(C)=O)S(=O)(=O)c1ccc(Cl)cc1 [Compound 18, N-(4-chlorobenzenesulfonyl)-N-acetyloxy-acetamide]",<3 h,–,–,–,4%,–
"CC(=O)ON(Cl)C(=O)c1ccccc1 [Compound 6, N-chloro-N-acetoxy-benzamide]",<3 h,–,–,–,2%,–
"O=C(ON(Cl)C(=O)c1ccccc1)C(Cl)Cl [Compound 7, N-chloro-N-dichloroacetyloxy- benzamide]",<3 h,–,–,–,7%,–
"CC(=O)ON(Cl)C(=O)C(C)(C)C [Compound 14, N-chloro-N-(acetyloxy)- trimethylacetamide]",<3 h,–,–,48%,6%,–
"CC(=O)ON(C(C)=O)S(=O)(=O)c1ccccc1Cl [Compound 20, N-(2-chlorobenzenesulfonyl)-N-acetyloxy-acetamide]",<3 h,–,–,–,23%,–
CC(C)(C)OC(=O)N(Cl)OC(=O)c1ccc([N+](=O)[O-])cc1 [Compound 13],<3 h,–,–,9%,–,–
"CC(=O)ON(C(C)=O)S(=O)(=O)c1ccccc1Br [Compound 19, N-(2-bromobenzenesulfonyl)-N-acetyloxy-acetamide]",< 2 h,–,~20 min,–,35%,–
"O=C(ON(Cl)C(=O)c1ccc(Cl)cc1)c1ccc(Cl)cc1 [Compound 2, N-chloro-N-(4-chlorobenzoyloxy)-4-chlorobenzamide]",<3 h,–,–,32%,1%,–
"O=C(c1ccccc1)N(Cl)OC(=O)C(F)(F)F [Compound 8, N-chloro-N-(2,2,2-trifluoroacetoxy)benzamide]",<3 h,–,–,–,2%,–
